Test [1] addresses T1, alpha-synuclein (sonicated fibrils) (Homo sapiens, UniProt P37840).
T1 construct: made in house; host or cells: E. coli
Put plainly: Modified competition binding assay, protocol 3b, reference ligand [3H]-compound 2. To be noted: Table 5, reference ligand [3H]-compound 2 (1 nM). Put shortly: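 Sonicated recombinant human αSYN fibrils (15 nM/well) incubated with 1 nM [3H]-compound 2 and serially diluted unlabeled competitor in 30 mM Tris-HCl, 10% ethanol, 0.05% Tween20, pH 7.4, 4.5 h at RT. Filtration readout; IC50 by non-linear regression, Ki calculated using KD 0.2 nM.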

The target in test [2] is T2, aggregated alpha-synuclein (Homo sapiens, UniProt P37840).
T2 construct: made in house; host or cells: E. coli
Put plainly: Modified saturation binding assay, protocol 2b, alpha-synuclein fibrils. To be noted: saturation assay protocol 2b, sonicated fibrils 15 nM/well. On the procedure:
Alpha-synuclein and tau46 were purified from E. coli according to established protocols (Nuscher B, et al., J. Biol. Chem., 2004; 279(21):21966-75), Aβ1-42 was obtained from rPeptide, Watkinsville, Ga., USA. Fibrils were prepared by aggregation of recombinant protein via constant agitation. In detail, 70 μM of alpha-synuclein mixed with 100 mM NaCl in 50 mM Tris, pH 7.0+0.02% NaN3 were incubated at 1,400 rpm, 37° C. for 96 h. 10 μM of tau46 were incubated with 0.03 mg/ml heparin in 50 mM Tris, pH=7.0 at 1,000 rpm, 37° C. for 72 h. […]
For saturation binding assays, a fixed concentration of sonicated human recombinant αSYN (15 nM/well) or tau46 (250 nM/well) or Aβ1-42 (1 μM/well) fibrils diluted in phosphate buffered saline (PBS) were incubated in low binding plates (96 well micro test plate, Ratiolab GmbH, Dreieich, Germany) with [H]-compound 1 or [PH]-compound 2 at increasing concentrations (from 0.05 nM to 12 nM/24 nM) in 30 mM Tris HCl, 10% ethanol, 0.05% Tween20, pH 7.4 (hereafter referred to as incubation buffer) in a total volume of 200 μL/well. Non-specific binding of the radiotracer was determined by coincubation with 400 nM non-labeled compound 1 or compound 2. The optimal fibril concentrations were determined using a concentration determination assay. […]

Test [3] has as its target T3, alpha-synuclein (fibrils) (Homo sapiens, UniProt P37840).
T3 construct: made in house; host or cells: E. coli
Put plainly: Competition binding assay, protocol 3a, reference ligand [3H]-compound 1, alpha-synuclein fibrils. To be noted: reference ligand [3H]-compound 1 (1 nM).

Where [4] appears, read: Experiment B, read-out: Ki (nM) alpha-synuclein (sonicated fibrils).

In patent publication US20230067910A1, “NOVEL COMPOUNDS FOR THE DIAGNOSIS, TREATMENT AND PREVENTION OF DISEASES ASSOCIATED WITH THE AGGREGATION OF ALPHA-SYNUCLEIN” (MODAG GMBH, priority 2019, published 2023) one finds Ki and Kd data, which are given here for three compounds.

“And” between values parts separate entries of the source, which are not always exact repeats. Equal values may be shown once. Read-outs that look alike come from different tables or passages of the source.

Consider `CN(C)c1ccc(-c2cc(-c3ccnc(Br)c3)[nH]n2)cc1` [Compound 1, 4-[3-(4-dimethylamino-phenyl)-1H-pyrazol-5-yl]-2-bromopyridine], for which, in test [1], the Ki – broadly, the equilibrium dissociation constant of an inhibitor or competing ligand from its target – was found to be 0.1 nM. The Kd (usually the equilibrium constant for the complex coming apart) in test [2] worked out at 0.6 nM.

Turning to `CNc1ccc(-c2cc(-c3ccnc(Br)c3)[nH]n2)cc1` [Compound 2, 4-[5-(2-bromopyridin-4-yl)-1H-pyrazol-3-yl]-N-methylaniline], in test [3] (setting [4]), the Ki is under 2 nM. Further, in test [2], the Kd was 0.2 nM.

As to `Fc1cc(-c2cc(-c3ccc4c(c3)OCO4)n[nH]2)ccn1` [Compound 12, 4-[3-(1,3-benzodioxol-5-yl)-1H-pyrazol-5-yl]-2-fluoropyridine], the Ki in test [1] is 3.4 nM; in test [3] (Experiment A, read-out: Ki (nM) alpha-synuclein (fibrils)), 47 nM and 42 nM; in test [3] (setting [4]) it was 9 nM.
